# In US20240376099A1, “COMPOUNDS AND COMPOSITIONS AS INHIBITORS OF ENDOSOMAL TOLL-LIKE RECEPTORS” (Novartis AG, priority 2016, published 2024):
# Target: T1, TLR8 (Homo sapiens, UniProt Q9NR97)
# T1 sequence (Q9NR97 27-1041): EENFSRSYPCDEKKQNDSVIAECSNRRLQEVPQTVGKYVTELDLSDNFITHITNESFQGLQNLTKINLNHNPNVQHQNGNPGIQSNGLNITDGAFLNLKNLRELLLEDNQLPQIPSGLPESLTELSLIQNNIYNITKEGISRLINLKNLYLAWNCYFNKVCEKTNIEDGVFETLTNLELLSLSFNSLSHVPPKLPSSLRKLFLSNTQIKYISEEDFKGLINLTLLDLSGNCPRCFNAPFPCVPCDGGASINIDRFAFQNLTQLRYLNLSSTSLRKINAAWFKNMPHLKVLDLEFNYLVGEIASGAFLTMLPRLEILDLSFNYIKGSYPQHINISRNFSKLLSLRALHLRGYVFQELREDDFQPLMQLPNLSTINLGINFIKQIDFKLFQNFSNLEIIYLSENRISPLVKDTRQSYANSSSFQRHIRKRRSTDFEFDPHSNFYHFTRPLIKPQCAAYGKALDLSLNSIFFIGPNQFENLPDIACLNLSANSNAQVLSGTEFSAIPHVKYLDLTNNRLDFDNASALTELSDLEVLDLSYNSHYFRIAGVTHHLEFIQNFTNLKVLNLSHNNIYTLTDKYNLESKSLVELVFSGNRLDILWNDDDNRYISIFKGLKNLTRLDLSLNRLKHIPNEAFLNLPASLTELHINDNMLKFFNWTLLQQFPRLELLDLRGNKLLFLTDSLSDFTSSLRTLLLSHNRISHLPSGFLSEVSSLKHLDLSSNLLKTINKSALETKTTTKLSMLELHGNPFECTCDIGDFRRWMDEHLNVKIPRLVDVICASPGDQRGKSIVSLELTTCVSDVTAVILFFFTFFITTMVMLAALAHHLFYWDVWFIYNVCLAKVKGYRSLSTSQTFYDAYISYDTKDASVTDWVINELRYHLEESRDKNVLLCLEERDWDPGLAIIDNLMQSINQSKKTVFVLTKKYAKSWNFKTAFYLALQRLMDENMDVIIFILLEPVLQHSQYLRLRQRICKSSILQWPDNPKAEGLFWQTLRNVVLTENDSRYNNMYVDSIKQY
# Test: huPBMC TLR8 Antagonist IL-6 TR-FRET Assay
# Assay type: cell-based
# Parameters: Fresh blood was collected from normal human donors; endogenous in cells; host or cells: human PBMCs from fresh donor blood
# Settings: human PBMCs stimulated with ssRNA40 1 μg/ml (DOTAP), 14-16 hrs; IL-6 TR-FRET read-out
# Experimental: Compounds were generally serially diluted (1/3) in DMSO and plated on sterile 384 well tissue culture plates and stored until ready for use. Each ten-point dilution was typically plated in triplicate in parallel rows.
# Fresh blood was collected from normal human donors underwritten informed consent in heparinized syringes on the morning of the assay. The blood was diluted in RPMI-1640 medium and the white blood cells were separated from red blood cells by centrifugation (800 g 15′ 0 acceleration, 0 brake) on a Ficoll cushion. Peripheral blood mononuclear cells (PBMCs) were separated from platelets by a series of low-speed centrifugations (1000RPM 10′) in PBS+5% HI—FBS and 1 mM EDTA. Purified PBMCs were re-suspended in assay medium (RPMI-1640 w Glutamax (Invitrogen) supplemented with 5% HI—FBS, 10 mM HEPES, 50 uM β-mercaptoethanol, and 100 mG/L penicillin/streptomycin cocktail). Viable PBMCs were counted on a hemacytometer and kept on ice until ready for plating.
# A 4× concentration (4 ug/ml or 40 ug/ml for TLR8 or TLR7 assays, respectively) of the TLR7/8 agonist ssRNA40 (IDT) was complexed with 10% DOTAP (Roche) in assay medium for 30 min prior to addition to the PBMC suspension (5 million cells/ml). After addition, the final concentration of ssRNA40 in the TLR7/8 stimulated PBMC suspension was 1 μg/ml for TLR8 assay, and 10 μg/mL for the TLR7 assay. The final DOTAP concentration was 2.5%. Diluted PBMCs (5 million cells/ml) were treated with 4×TLR9 agonist ODN2216 (Invivogen). Final concentration of ODN2216 in TLR9 stimulated PBMC suspension was 0.3 μM.
# Agonist stimulated PBMCs were plated on the compound treated 384 well plates at 150,000 cells/well. Un-stimulated PBMCs were plated as controls on each plate. Plating volume was 40 μL per well. DMSO concentration in each well was 0.25%.
# A separate plate, without compounds, with titrations of ssRNA40 and ODN2216 was included in every assay to measure agonist response of each donor's PBMC prep. Assay plates were placed in a tissue culture incubator (37° C., 5% CO2) for 14-16 hrs. After this incubation, the plates were centrifuged and stored at −20° C. until they were assayed.
# IL-6 TR-FRET Assay for TLR8 activity: • 1) Cisbio Human IL-6 kit, 20,000 tests (62TNFPEC), and GNF High-Base TC 384 well plates (cat #789163G) were used; • 2) the Anti-TIL-6 Cryptate conjugate and the Anti-IL-6 XL665 conjugate were diluted 1:20 in Reconstitution Buffer; • 3) a 1:1 mixture of 3 μl/well Anti-IL-6 Cryptate conjugate and 3 μl/well Anti-IL-6 XL665 conjugate was prepared; • 4) 6 μl/well HTRF dilution mastermix was added to 6 μl of transferred supernatant samples in proxiplates; • 5) The plates were incubated for 3 hrs at rt in the dark; and • 6) the levels of IL-6 production was measured using an Envision plate reader (665 nm (emmission)/590 nm (excitation)) with HTRF settings and ratiometric read-out: (XL665 emission/Eu Cryptate emission)×10,000. IFNα2b AlphaLISA Assay for TLR7 or TLR9 activity After thawing the assay plates, 6 μL of supernatant samples were transferred to a low-volume AlphaPlate 384SW (Perkin-Elmer). The concentration of IFNα in supernatants was measured using the IFNα2b AlphaLISA Assay (Perkin-Elmer: AL297F). 3 μL of IFNα acceptor beads/biotinylated antibody solution was added first, using laboratory automation. After an hour incubation, […] of streptavidin […] bead solution was added. The plates containing this mixture were incubated in the dark for an hour and read on an appropriate plate reader at reading parameters set by the manufacturer. (Envision, EnSpire: Perkin-Elmer).
row,IC50 [nM],SMILES
1,511,"Cc1nc(N2CCc3c(c(C)nn3CC34CCC(N)(CC3)CC4)C2)c2cc[nH]c2n1 [Compound No. 4, 4-((3-methyl-5-(2-methyl-7H-pyrrolo[2,3-d]pyrimidin-4-yl)-4,5,6,7-tetrahydro-1H-pyrazolo[4,3-c]pyridin-1-yl)methyl)bicyclo[2.2.2]octan-1-amine]"
2,61,"Cc1cc(N2CCc3c(c(C)nn3CC34CCC(NC(=O)CN(C)C)(CC3)CC4)C2)c2cnn(C)c2n1 [Compound No. 7, N-(4-((5-(1,6-dimethyl-1H-pyrazolo[3,4-b]pyridin-4-yl)-3-methyl-4,5,6,7-tetrahydro-1H-pyrazolo[4,3-c]pyridin-1-yl)methyl)bicyclo[2.2.2]octan-1-yl)-2-(dimethylamino)acetamide]"
3,379,"COCCN(CCOC)C12CCC(Cn3nc(C)c4c3CCN(c3cc(C)nc5c3cnn5C)C4)(CC1)CC2 [Compound No. 70, 4-((5-(1,6-dimethyl-1H-pyrazolo[3,4-b]pyridin-4-yl)-3-methyl-4,5,6,7-tetrahydro-1H-pyrazolo[4,3-c]pyridin-1-yl)methyl)-N,N-bis(2-methoxyethyl)bicyclo[2.2.2]octan-1-amine]"
4,139,"COCCN(C)C12CCC(Cn3nc(C)c4c3CCN(c3cc(C)nc5c3cnn5C)C4)(CC1)CC2 [Compound No. 73, 4-((5-(1,6-dimethyl-1H-pyrazolo[3,4-b]pyridin-4-yl)-3-methyl-4,5,6,7-tetrahydro-1H-pyrazolo[4,3-c]pyridin-1-yl)methyl)-N-(2-methoxyethyl)-N-methylbicyclo[2.2.2]octan-1-amine]"
5,201,"Cc1cc(N2CCc3c(c(C)nn3CC34CCC(NCC(=O)N(C)C)(CC3)CC4)C2)c2cnn(C)c2n1 [Compound No. 76, 2-((4-((5-(1,6-dimethyl-1H-pyrazolo[3,4-b]pyridin-4-yl)-3-methyl-4,5,6,7-tetrahydro-1H-pyrazolo[4,3-c]pyridin-1-yl)methyl)bicyclo[2.2.2]octan-1-yl)amino)-N,N-dimethylacetamide]"
6,865,"Cc1nn(CC23CCC(N)(CC2)CC3)c2c1CN(c1nc(-c3ccc(F)cc3)nc3c1cnn3C)CC2 [Compound No. 83, 4-((5-(6-(4-fluorophenyl)-1-methyl-1H-pyrazolo[3,4-d]pyrimidin-4-yl)-3-methyl-4,5,6,7-tetrahydro-1H-pyrazolo[4,3-c]pyridin-1-yl)methyl)bicyclo[2.2.2]octan-1-amine]"
7,699,"Cc1cc(N2CCc3c(c(C)nn3CC34CCC(N)(CC3)CC4)C2)c2ccccc2n1 [compound 62, -((3-methyl-5-(2-methylquinolin-4-yl)-4,5,6,7-tetrahydro-1H-pyrazolo[4,3-c]pyridin-1-yl)methyl)bicyclo[2.2.2]octan-1-amine]"
8,2360,"Cc1cc(N2Cc3cn(CC45CCC(N)(CC4)CC5)nc3C(C)(C)C2)c2cnn(C)c2n1 [compound 65, 4-((5-(1,6-dimethyl-1H-pyrazolo[3,4-b]pyridin-4-yl)-7,7-dimethyl-4,5,6,7-tetrahydro-2H-pyrazolo[4,3-c]pyridin-2-yl)methyl)bicyclo[2.2.2]octan-1-amine]"
9,1130,"Cc1cc(N2CCc3c(c(C)nn3CC34CCC(N5CCS(=O)(=O)CC5)(CC3)CC4)C2)c2cnn(C)c2n1 [compound 66, 4-(4-((5-(1,6-dimethyl-1H-pyrazolo[3,4-b]pyridin-4-yl)-3-methyl-4,5,6,7-tetrahydro-1H-pyrazolo[4,3-c]pyridin-1-yl)methyl)bicyclo[2.2.2]octan-1-yl)thiomorpholine 1,1-dioxide]"
10,155,"Cc1cc(N2CCc3c(c(C)nn3CC34CCC(N5CC(O)C5)(CC3)CC4)C2)c2cnn(C)c2n1 [compound 68, 1-(4-((5-(1,6-dimethyl-1H-pyrazolo[3,4-b]pyridin-4-yl)-3-methyl-4,5,6,7-tetrahydro-1H-pyrazolo[4,3-c]pyridin-1-yl)methyl)bicyclo[2.2.]octan-1-yl)azetidin-3-ol]"
11,474,"Cc1cc(N2CCc3c(c(C)nn3CC34CCC(N(C)C(C)C)(CC3)CC4)C2)c2cnn(C)c2n1 [compound 78, 4-((5-(1,6-dimethyl-1H-pyrazolo[3,4-b]pyridin-4-yl)-3-methyl-4,5,6,7-tetrahydro-1H-pyrazolo[4,3-c]pyridin-1-yl)methyl)-N-isopropyl-N-methylbicyclo[2.2.2]octan-1-amine]"
12,395,"Cc1cc(N2CCc3c(c(C)nn3CC34CCC(N)(CC3)CO4)C2)c2cnn(C)c2n1 [compound 81, 1-((5-(1,6-dimethyl-1H-pyrazolo[3,4-b]pyridin-4-yl)-3-methyl-4,5,6,7-tetrahydro-1H-pyrazolo[4,3-c]pyridin-1-yl)methyl)-2-oxabicyclo[2.2.2]octan-4-amine]"
13,486,"Cc1cc(N2CCc3c(c(C)nn3CC34CCC(N5CCCC5)(CC3)CO4)C2)c2cnn(C)c2n1 [compound 82, 5-(1,6-dimethyl-1H-pyrazolo[3,4-b]pyridin-4-yl)-3-methyl-1-((4-(pyrrolidin-1-yl)-2-oxabicyclo[2.2.2]octan-1-yl)methyl)-4,5,6,7-tetrahydro-1H-pyrazolo[4,3-c]pyridine]"
14,1100,"Cc1nn(CC23CCC(N)(CC2)CC3)c2c1CN(c1ccnc(-c3ccc(F)cc3)c1)CC2 [compound 87, 4-((5-(2-(4-fluorophenyl)pyridin-4-yl)-3-methyl-4,5,6,7-tetrahydro-1H-pyrazolo[4,3-c]pyridin-1-yl)methyl)bicyclo[2.2.2]octan-1-amine]"
15,715,"Cc1ccc(-c2cc(N3CCc4c(c(C)nn4CC45CCC(N)(CC4)CC5)C3)ccn2)c(F)c1 [compound 88, 4-((5-(2-(2-fluoro-4-methylphenyl)pyridin-4-yl)-3-methyl-4,5,6,7-tetrahydro-1H-pyrazolo[4,3-c]pyridin-1-yl)methyl)bicyclo[2.2.2]octan-1-amine]"
